Reference: US20250215029A1 (Recludix Pharma, Inc., priority 2022, published 2025)
Read-outs that look alike come from different tables or passages of the source.

Legend:
[1] = molecular target: T1, Recombinant STAT3 protein (STAT3 (G127-I722)) (Homo sapiens, UniProt P40763); assay: STAT3 Fluorescence Polarization (FP) Assay; assay type: binding; settings: probe 5-FAM-GpYLPQTV-NH2 2 nM, 45-minute incubation
T1 construct: Recombinant STAT3 protein (STAT3 (G127-I722))
Procedure: STAT3 Fluorescence Polarization (FP) Assay
An FP assay was developed to determine IC50 values for test substances. Recombinant STAT3 protein (STAT3 (G127-I722)) at 25 nM was combined with a fluorescently labeled, phosphotyrosine peptide probe (5-FAM-GpYLPQTV-NH2) at 2 nM in FP buffer (10 mM HEPES pH 7.4, 50 mM NaCl, 1 mM EDTA, 0.05% Tween 20.2 mM DTT). 50 μL of STAT3-probe mixture was added to serial diluted compounds in black, 96-well plates (Greiner BioOne 655076) to a final concentration of 1% DMSO. Reaction components were mixed, and FP was measured after 45-minute incubation at room temperature using a Tecan Spark multimode plate reader. FP signal (mP) was plotted against the log concentration of the test substances and IC50 values were calculated by nonlinear regression analysis using GraphPad Prism software. For STAT3 FP assay, A=≤100 nM; B=>100-1000 nM; C=>1-10 μM; and D=>10 μM.

[2] = molecular target: T2, Recombinant STAT6 protein (STAT6 (W123-T658)) (Homo sapiens, UniProt P42226); assay: STAT6 Fluorescence Polarization (FP) Assay; assay type: binding; settings: 45-minute incubation
T2 construct: Recombinant STAT6 protein (STAT6 (W123-T658))
T2 sequence (P42226 123-658): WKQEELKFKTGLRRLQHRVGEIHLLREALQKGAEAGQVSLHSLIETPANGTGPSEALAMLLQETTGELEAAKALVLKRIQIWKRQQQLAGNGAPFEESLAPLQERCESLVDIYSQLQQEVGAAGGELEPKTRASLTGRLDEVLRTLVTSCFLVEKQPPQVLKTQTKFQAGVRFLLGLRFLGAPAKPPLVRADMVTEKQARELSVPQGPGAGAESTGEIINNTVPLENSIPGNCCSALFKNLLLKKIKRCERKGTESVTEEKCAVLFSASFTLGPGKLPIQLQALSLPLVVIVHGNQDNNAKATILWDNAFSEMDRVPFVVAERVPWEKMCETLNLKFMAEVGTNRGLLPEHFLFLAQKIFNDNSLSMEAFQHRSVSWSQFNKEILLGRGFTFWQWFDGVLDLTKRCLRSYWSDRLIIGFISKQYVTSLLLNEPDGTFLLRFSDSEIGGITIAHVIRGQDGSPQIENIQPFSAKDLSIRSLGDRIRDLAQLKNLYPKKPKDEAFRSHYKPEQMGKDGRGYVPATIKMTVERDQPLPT
Procedure: STAT6 Fluorescence Polarization (FP) Assay
An FP assay was developed to determine IC50 values for test substances. Recombinant STAT6 protein (STAT6 (W123-T658)) at 250 nM was combined with a fluorescently labeled, phosphotyrosine peptide probe (5-FAM-Ap[…]-NH2) at 2 nM in FP buffer (10 mM HEPES pH 7.4, 50 mM NaCl, 1 mM EDTA, 0.05% Tween 20, 2 mM DTT). 50 μL of STAT6-probe mixture was added to serial diluted compounds in black, 96-well plates (Greiner BioOne 655076) to a final concentration of 1% DMSO. Reaction components were mixed, and FP was measured after 45-minute incubation at room temperature using a Tecan Spark multimode plate reader. FP signal (mP) was plotted against the log concentration of the test substances and IC50 values were calculated by nonlinear regression analysis using GraphPad Prism software. For STAT6 FP assay, A=≤300 nM; B=>300-3000 nM; C=>3-30 μM; and D=>30 μM.

[3] = STAT3 (G127-I722) 25 nM, read-out: STAT3 (FP assay IC50 class)
[4] = STAT6 (W123-T658) 250 nM, probe 5-FAM-Ap[…]-NH2 2 nM, read-out: STAT6 (FP assay IC50 class)

T1 sequence (P40763 127-722): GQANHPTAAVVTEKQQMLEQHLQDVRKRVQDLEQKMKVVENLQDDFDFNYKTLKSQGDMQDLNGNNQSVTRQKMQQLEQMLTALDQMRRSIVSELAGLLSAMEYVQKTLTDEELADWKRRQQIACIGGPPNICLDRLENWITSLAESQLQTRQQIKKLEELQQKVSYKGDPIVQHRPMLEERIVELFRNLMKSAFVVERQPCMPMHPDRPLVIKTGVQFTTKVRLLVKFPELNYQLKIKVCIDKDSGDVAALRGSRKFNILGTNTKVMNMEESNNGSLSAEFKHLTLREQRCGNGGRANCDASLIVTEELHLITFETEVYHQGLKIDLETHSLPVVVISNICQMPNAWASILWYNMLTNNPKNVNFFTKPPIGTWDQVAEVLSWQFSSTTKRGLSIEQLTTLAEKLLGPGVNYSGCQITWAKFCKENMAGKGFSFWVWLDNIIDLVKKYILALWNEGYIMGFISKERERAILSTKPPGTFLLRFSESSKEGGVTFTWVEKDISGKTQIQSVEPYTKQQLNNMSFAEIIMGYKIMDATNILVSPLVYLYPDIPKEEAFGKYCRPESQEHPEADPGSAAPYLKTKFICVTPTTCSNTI

SMILES | IC50 [1, 3] [µM] | IC50 [2, 4] [µM] | IC50 ([1]; STAT3 25 nM, read-out: STAT3 (FP assay IC50)) [µM] | IC50 ([2]; STAT6 250 nM, probe 5-FAM-Ap[…]-NH2 2 nM, read-out: STAT6 (FP assay IC50)) [µM] | IC50 ([2]; STAT6 (W123-T658) 250 nM, probe 5-FAM-ApYKPFQDLI-NH2 2 nM, read-out: STAT6 (FP assay IC50 class)) [µM]
O=C(N[C@H]1CCC[C@H]2CC[C@@H](C(=O)N3CC(c4cnccc4N4CC[C@H](F)C4)C3)N2C1=O)c1cc2cc(CP(=O)(O)O)ccc2s1 [Compound 666, ((2-(((3S,6S,9aS)-3-(3-(4-((S)-3-fluoropyrrolidin-1-yl)pyridin-3-yl)azetidine-1-carbonyl)-5-oxooctahydro-1H-pyrrolo[1,2-a]azepin-6-yl)carbamoyl)benzo [b]thiophen-5-yl)methyl) phosphonic acid] | < 0.1 | 3 to 30 |  |  | 
O=C(N[C@H]1CCCC[C@H]2CC[C@@H](C(=O)N3CC(c4ccccc4)CC34CC4)N2C1=O)c1cnc2ccc(CP(=O)(O)O)cc2c1 (stereo partly drawn) [Compound 895, ((3-(((3S,6S,10aS)-5-oxo-3-(6-phenyl-4-azaspiro[2.4]heptane-4-carbonyl)decahydropyrrolo[1,2-a]azocin-6-yl)carbamoyl)quinolin-6-yl)methyl) phosphonic acid] | 1 to 10 | 0.3 to 3 |  |  | 
N#C[C@@H]1CN(C(=O)[C@@H]2CC[C@@H]3CCCC[C@H](NC(=O)c4ccc5ccc(C(F)P(=O)(O)O)cc5c4)C(=O)N32)C[C@H]1c1ccccc1 (single isomer, unassigned) [Compound 226] | 1 to 10 | ≤ 0.3 |  |  | 
C[C@@H]1C[C@H]2CC[C@@H](C(=O)N3CC(c4cnccc4N(C)C)C3)N2C(=O)[C@@H](NC(=O)c2cc3cc(CP(=O)(O)O)ccc3s2)C1 [Compound 639, ((2-(((3S,6S,8S,9aR)-3-(3-(4-(dimethylamino)pyridin-3-yl)azetidine-1-carbonyl)-8-methyl-5-oxooctahydro-1H-pyrrolo[1,2-a]azepin-6-yl)carbamoyl)benzo [b]thiophen-5-yl)methyl) phosphonic acid] | < 0.1 | 3 to 30 |  |  | 
COc1ccncc1C1CN(C(=O)[C@@H]2CC[C@@H]3CCC[C@H](NC(=O)c4cc5cc([C@H](F)P(=O)(O)O)ccc5s4)C(=O)N32)C1 (single isomer, unassigned) [Compound 747] | < 0.1 | 3 to 30 |  |  | 
Cc1c(F)cncc1C1CN(C(=O)[C@@H]2CC[C@@H]3CCC[C@H](NC(=O)c4cc5cc(CP(=O)(O)O)ccc5s4)C(=O)N32)C1 [Compound 504, ((2-(((3S,6S,9aS)-3-(3-(5-fluoro-4-methylpyridin-3-yl)azetidine-1-carbonyl)-5-oxooctahydro-1H-pyrrolo[1,2-a]azepin-6-yl)carbamoyl)benzo[b]thiophen-5-yl)methyl)phosphonic acid] | 1 to 10 | 3 to 30 |  |  | 
Cn1ccc(=O)c(C2CN(C(=O)[C@@H]3CC[C@@H]4CCC[C@H](NC(=O)c5cc6cc(C(F)P(=O)(O)O)ccc6s5)C(=O)N43)C2)c1 (stereo partly drawn) [Compound 617, (fluoro(2-(((3S,6S,9aS)-3-(3-(1-methyl-4-oxo-1,4-dihydropyridin-3-yl)azetidine-1-carbonyl)-5-oxooctahydro-1H-pyrrolo[1,2-a]azepin-6-yl)carbamoyl)benzo [b]thiophen-5-yl)methyl) phosphonic acid] | 0.1 to 1 | 3 to 30 |  |  | 
COC1(c2cnccc2C)CN(C(=O)[C@@H]2CC[C@@H]3CCC[C@H](NC(=O)c4cc5cc(C(F)(F)P(=O)(O)O)ccc5s4)C(=O)N32)C1 [Compound 722, (difluoro(2-(((3S,6S,9aS)-3-(3-methoxy-3-(4-methylpyridin-3-yl)azetidine-1-carbonyl)-5-oxooctahydro-1H-pyrrolo[1,2-a]azepin-6-yl)carbamoyl)benzo [b]thiophen-5-yl)methyl) phosphonic acid] | 0.1 to 1 | 3 to 30 |  |  | 
N#C[C@@H]1CN(C(=O)[C@@H]2CC[C@@H]3CCCC[C@H](NC(=O)c4cc5cc(C(F)P(=O)(O)O)ccc5s4)C(=O)N32)C[C@H]1c1ccccc1 (single isomer, unassigned) [Compound 225] | 1 to 10 |  |  |  | ≤ 0.3
Cn1cnc2ncc(CNC(=O)[C@@H]3CC[C@@H]4CCC[C@H](NC(=O)c5cc6cc(C(F)(F)P(=O)(O)O)ccc6s5)C(=O)N43)cc21 [Compound 1120, (difluoro(2-(((3S,6S,9aS)-3-(((1-methyl-1H-imidazo[4,5-b]pyridin-6-yl)methyl)carbamoyl)-5-oxooctahydro-1H-pyrrolo[1,2-a]azepin-6-yl)carbamoyl)benzo[b]thiophen-5-yl)methyl)phosphonic acid] | 0.1 to 1 | 0.3 to 3 |  |  | 

Now from value to compound:

IC50 [1, 3] [µM] | IC50 [2, 4] [µM] | IC50 ([1]; STAT3 25 nM, read-out: STAT3 (FP assay IC50)) [µM] | IC50 ([2]; STAT6 250 nM, probe 5-FAM-Ap[…]-NH2 2 nM, read-out: STAT6 (FP assay IC50)) [µM] | IC50 ([2]; STAT6 (W123-T658) 250 nM, probe 5-FAM-ApYKPFQDLI-NH2 2 nM, read-out: STAT6 (FP assay IC50 class)) [µM] | SMILES
0.1 to 1 | 0.3 to 3 |  |  |  | Cc1cccnc1C1CN(C(=O)[C@@H]2CC[C@@H]3CCC[C@H](NC(=O)c4cc5cc(C(F)(F)P(=O)(O)O)ccc5s4)C(=O)N32)C1 [Compound 658, (difluoro(2-(((3S,6S,9aS)-3-(3-(3-methylpyridin-2-yl)azetidine-1-carbonyl)-5-oxooctahydro-1H-pyrrolo[1,2-a]azepin-6-yl)carbamoyl)benzo [b]thiophen-5-yl)methyl) phosphonic acid]
< 0.1 | 3 to 30 |  |  |  | C[C@H]1C[C@H]2CC[C@@H](C(=O)N3CC(c4cncnc4N4CCC4)C3)N2C(=O)[C@@H](NC(=O)c2cc3cc([C@H](F)P(=O)(O)O)ccc3s2)C1 (single isomer, unassigned) [Compound 676]
1 to 10 | 3 to 30 |  |  |  | O=C(N[C@H]1CCC[C@H]2CC[C@@H](C(=O)N[C@@H]3CC[C@H](O)C3)N2C1=O)c1cc2cc(C(F)P(=O)(O)O)ccc2s1 (stereo partly drawn) [Compound 531, (fluoro(2-(((3S,6S,9aS)-3-(((1R,3S)-3-hydroxycyclopentyl)carbamoyl)-5-oxooctahydro-1H-pyrrolo[1,2-a]azepin-6-yl)carbamoyl)benzo[b]thiophen-5-yl)methyl)phosphonic acid]
 |  | 0.1 to 1 | 0.3 to 3 |  | C[C@H]1C[C@H]2CC[C@@H](C(=O)N3CC[C@@H](c4ccccc4)C3)N2C(=O)[C@@H](NC(=O)c2cc3cc(C(F)(F)P(=O)(O)O)ccc3s2)CC1O (stereo in doubt) [Compound 101, (difluoro(2-(((3S,6S,8S,9S, 10aR)-8-hydroxy-9-methyl-5-oxo-3-((S)-3-phenylpyrrolidine-1-carbonyl)decahydropyrrolo [1,2-a]azocin-6-yl)carbamoyl)benzo[b]thiophen-5-yl)methyl) phosphonic acid]
< 0.1 | 3 to 30 |  |  |  | C[C@H]1C[C@H]2CC[C@@H](C(=O)N3CC(c4cncnc4N4CCC4)C3)N2C(=O)[C@@H](NC(=O)c2cc3cc([C@@H](F)P(=O)(O)O)ccc3s2)C1 (single isomer, unassigned) [Compound 677]
0.1 to 1 | 3 to 30 |  |  |  | O=C(N[C@H]1CCC[C@H]2CC[C@@H](C(=O)N3CC(c4ccncc4F)C3)N2C1=O)c1cc2cc(C(F)P(=O)(O)O)ccc2s1 (stereo partly drawn) [Compound 610, (fluoro(2-(((3S,6S,9aS)-3-(3-(3-fluoropyridin-4-yl)azetidine-1-carbonyl)-5-oxooctahydro-1H-pyrrolo[1,2-a]azepin-6-yl)carbamoyl)benzo [b]thiophen-5-yl)methyl) phosphonic acid]
